For 32 compounds, IC50 results are on record in patent publication US20250270213A1, “PI3Ka INHIBITORS” (Synnovation Therapeutics, Inc., priority 2022, published 2025).

For this experiment, the system named is T47D (PIK3CA H1047R) cells. Nature of the experiment: pS473 AKT assay with 2.5% FBS, T47D cells. Type of experiment: cell-based. Conditions: Homo sapiens, pSer473 AKT, DMEM with 2.5% FBS, 2 h treatment, read-out: T47D_IC50. The procedure, abridged:
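T47D (PIK3CA H1047R) cells were switched to DMEM with 2.5% FBS and exposed to compounds for 2 h. After paraformaldehyde fixation, pSer473 AKT was detected by in-cell ELISA (rabbit primary, HRP anti-rabbit secondary, chemiluminescence); IC50 values were fitted from the concentration series.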

The structures appear in SMILES notation.

For `Cc1cc(C(C)Nc2ccccc2C(=O)O)c2c(c1)c(=O)n(C)c1cncn21` (centres unmarked) [Compound I-4, 2-((1-(4,7-Dimethyl-5-oxo-4,5-dihydroimidazo[1,5-a]quinazolin-9-yl)ethyl)amino)benzoic acid], the IC50 is less than 1000 nM. To `CCc1ncn2c3c(C(C)Nc4ccccc4C(=O)O)cc(C)cc3c(=O)n(C)c12` (centres unmarked) [Compound I-5, 2-((1-(3-Ethyl-4,7-dimethyl-5-oxo-4,5-dihydroimidazo[1,5-a]quinazolin-9-yl)ethyl)amino)benzoic acid] belongs less than 1000 nM; to `Cc1cc(C(C)Nc2ccccc2C(=O)O)c2c(c1)c(=O)n(C)c1c(-c3ccccn3)ncn21` (centres unmarked) [Compound I-6, 2-((1-(4,7-Dimethyl-5-oxo-3-(pyridin-2-yl)-4,5-dihydroimidazo[1,5-a]quinazolin-9-yl)ethyl)amino)benzoic acid], less than 1000 nM. To `Cc1cc(C(C)Nc2ccccc2C(=O)O)c2c(c1)c(=O)n(C)c1c(C)ncn21` (centres unmarked) [Compound I-7, 2-((1-(3,4,7-Trimethyl-5-oxo-4,5-dihydroimidazo[1,5-a]quinazolin-9-yl)ethyl)amino)benzoic acid] belongs less than 1000 nM.

As for `Cc1cc(C(C)Nc2ccc(C)nc2C(=O)O)c2c(c1)c(=O)n(C)c1c(C)ncn21` (centres unmarked) [Compound I-8, 6-Methyl-3-((1-(3,4,7-trimethyl-5-oxo-4,5-dihydroimidazo[1,5-a]quinazolin-9-yl)ethyl)amino)picolinic acid], the IC50 is less than 1000 nM. Take `CCc1ncn2c3c(C(C)Nc4ccccc4C(=O)O)cc(Cl)cc3c(=O)n(C)c12` (centres unmarked) [Compound I-9, 2-((1-(7-Chloro-3-ethyl-4-methyl-5-oxo-4,5-dihydroimidazo[1,5-a]quinazolin-9-yl)ethyl)amino)benzoic acid]: the IC50 is less than 1000 nM. Take `CC(Nc1ccccc1C(=O)O)c1cc(Cl)cc2c(=O)n(C)c3cncn3c12` (centres unmarked) [Compound I-10, 2-((1-(7-Chloro-4-methyl-5-oxo-4,5-dihydroimidazo[1,5-a]quinazolin-9-yl)ethyl)amino)benzoic acid]: the IC50 was less than 1000 nM.

Regarding `Cc1ncn2c3c(C(C)Nc4ccccc4C(=O)O)cc(Cl)cc3c(=O)n(C)c12` (centres unmarked) [Compound I-11, 2-((1-(7-Chloro-3,4-dimethyl-5-oxo-4,5-dihydroimidazo[1,5-a]quinazolin-9-yl)ethyl)amino)benzoic acid], the IC50 is less than 1000 nM. For `CCn1c(=O)c2cc(Cl)cc(C(C)Nc3ccccc3C(=O)O)c2n2cncc12` (centres unmarked) [Compound I-12, 2-((1-(7-Chloro-4-ethyl-5-oxo-4,5-dihydroimidazo[1,5-a]quinazolin-9-yl)ethyl)amino)benzoic acid] the value was less than 1000 nM.

Regarding `CCc1ncn2c3c(C(C)Nc4ccccc4C(=O)O)cc(Cl)cc3c(=O)n(CC)c12` (centres unmarked) [Compound I-13, 2-((1-(7-Chloro-3,4-diethyl-5-oxo-4,5-dihydroimidazo[1,5-a]quinazolin-9-yl)ethyl)amino)benzoic acid], the IC50 is less than 1000 nM. `Cc1cc(C(C)Nc2ccccc2C(=O)O)c2c(c1)c(=O)n(C)c1nccn21` (centres unmarked) [Compound I-14, 2-((1-(4,7-Dimethyl-5-oxo-4,5-dihydroimidazo[1,2-a]quinazolin-9-yl)ethyl)amino)benzoic acid]: the IC50 was less than 1000 nM.

As for `Cc1cc(C(C)Nc2ccccc2C(=O)O)c2c(c1)c(=O)n(C)c1ncnn21` (centres unmarked) [Compound I-15, 2-((1-(4,7-Dimethyl-5-oxo-4,5-dihydro-[1,2,4]triazolo[1,5-a]quinazolin-9-yl)ethyl)amino)benzoic acid], the IC50 is less than 1000 nM.

As for `Cc1cc(C(C)Nc2ccccc2C(=O)O)c2c(c1)c(=O)n(C)c1c2cnn1C` (centres unmarked) [Compound I-16, 2-((1-(3,4,7-Trimethyl-5-oxo-4,5-dihydro-3H-pyrazolo[3,4-c]isoquinolin-9-yl)ethyl)amino)benzoic acid], the IC50 is less than 1000 nM.

Regarding `Cc1cc(C(C)Nc2ccc(Cl)nc2C(=O)O)c2c(c1)c(=O)n(C)c1c2cnn1C` (centres unmarked) [Compound I-17, 6-Chloro-3-((1-(3,4,7-trimethyl-5-oxo-4,5-dihydro-3H-pyrazolo[3,4-c]isoquinolin-9-yl)ethyl)amino)picolinic acid], the IC50 is less than 1000 nM.

As to `CCn1ncc2c3c(C(C)Nc4ccccc4C(=O)O)cc(C)cc3c(=O)n(C)c21` (centres unmarked) [Compound I-18, 2-((1-(3-Ethyl-4,7-dimethyl-5-oxo-4,5-dihydro-3H-pyrazolo[3,4-c]isoquinolin-9-yl)ethyl)amino)benzoic acid], the IC50 was less than 1000 nM. With `CCn1ncc2c3c(C(C)Nc4ccc(Cl)nc4C(=O)O)cc(C)cc3c(=O)n(C)c21` (centres unmarked) [Compound I-19, 6-Chloro-3-((1-(3-ethyl-4,7-dimethyl-5-oxo-4,5-dihydro-3H-pyrazolo[3,4-c]isoquinolin-9-yl)ethyl)amino)picolinic acid], the IC50 was less than 1000 nM. As to `CCn1ncc2c3c(C(C)Nc4ccc(C)nc4C(=O)O)cc(C)cc3c(=O)n(C)c21` (centres unmarked) [Compound I-20, 3-((1-(3-Ethyl-4,7-dimethyl-5-oxo-4,5-dihydro-3H-pyrazolo[3,4-c]isoquinolin-9-yl)ethyl)amino)-6-methylpicolinic acid], the IC50 was less than 1000 nM.

As to `CCn1c(=O)c2cc(C)cc(C(C)Nc3ccccc3C(=O)O)c2c2cnn(C)c21` (centres unmarked) [Compound I-21, 2-((1-(4-Ethyl-3,7-dimethyl-5-oxo-4,5-dihydro-3H-pyrazolo[3,4-c]isoquinolin-9-yl)ethyl)amino)benzoic acid], the IC50 was less than 1000 nM. For `CCn1c(=O)c2cc(C)cc(C(C)Nc3ccc(Cl)nc3C(=O)O)c2c2cnn(C)c21` (centres unmarked) [Compound I-22, 6-Chloro-3-((1-(4-ethyl-3,7-dimethyl-5-oxo-4,5-dihydro-3H-pyrazolo[3,4-c]isoquinolin-9-yl)ethyl)amino)picolinic acid] the value was less than 1000 nM; for `CCn1ncc2c3c(C(C)Nc4ccccc4C(=O)O)cc(C)cc3c(=O)n(CC)c21` (centres unmarked) [Compound I-23, 2-((1-(3,4-Diethyl-7-methyl-5-oxo-4,5-dihydro-3H-pyrazolo[3,4-c]isoquinolin-9-yl)ethyl)amino)benzoic acid], less than 1000 nM.

As for `CCn1ncc2c3c(C(C)Nc4ccc(F)cc4C(=O)O)cc(C)cc3c(=O)n(CC)c21` (centres unmarked) [Compound I-24, 2-((1-(3,4-Diethyl-7-methyl-5-oxo-4,5-dihydro-3H-pyrazolo[3,4-c]isoquinolin-9-yl)ethyl)amino)-5-fluorobenzoic acid], the IC50 was less than 1000 nM. On to `CCn1ncc2c3c(C(C)Nc4ccc(C)nc4C(=O)O)cc(C)cc3c(=O)n(CC)c21` (centres unmarked) [Compound I-25, 3-((1-(3,4-Diethyl-7-methyl-5-oxo-4,5-dihydro-3H-pyrazolo[3,4-c]isoquinolin-9-yl)ethyl)amino)-6-methylpicolinic acid], for which the IC50 was less than 1000 nM.

As to `CCCn1cc2c3c(C(C)Nc4ccccc4C(=O)O)cc(C)cc3c(=O)n(C)c2n1` (centres unmarked) [Compound I-26, 2-((1-(4,7-Dimethyl-5-oxo-2-propyl-4,5-dihydro-2H-pyrazolo[3,4-c]isoquinolin-9-yl)ethyl)amino)benzoic acid], the IC50 is less than 1000 nM. To `Cc1cc(C(C)Nc2ccccc2C(=O)O)c2c(c1)c(=O)n(C)c1nn(C3CCOCC3)cc21` (centres unmarked) [Compound I-27, 2-((1-(4,7-Dimethyl-5-oxo-2-(tetrahydro-2H-pyran-4-yl)-4,5-dihydro-2H-pyrazolo[3,4-c]isoquinolin-9-yl)ethyl)amino)benzoic acid] belongs less than 1000 nM.

On to `Cc1cc(C(C)Nc2ccccc2C(=O)O)c2c(c1)c(=O)n(C)c1nn(CCc3ccccc3)cc21` (centres unmarked) [Compound I-28, 2-((1-(4,7-Dimethyl-5-oxo-2-phenethyl-4,5-dihydro-2/I-pyrazolo[3,4-c]isoquinolin-9-yl)ethyl)amino)benzoic acid], for which the IC50 is less than 1000 nM. On to `Cc1cc(C(C)Nc2ccccc2C(=O)O)c2c(c1)c(=O)n(C)c1nn(-c3ccnc(F)c3)cc21` (centres unmarked) [Compound I-29, 2-((1-(2-(2-Fluoropyridin-4-yl)-4,7-dimethyl-5-oxo-4,5-dihydro-2H-pyrazolo[3,4-c]isoquinolin-9-yl)ethyl)amino)benzoic acid], for which the IC50 was less than 1000 nM. For `Cc1cc(C(C)Nc2ccccc2C(=O)O)c2c(c1)c(=O)n(C)c1nn(-c3cncnc3)cc21` (centres unmarked) [Compound I-30, 2-((1-(4,7-Dimethyl-5-oxo-2-(pyrimidin-5-yl)-4,5-dihydro-2H-pyrazolo[3,4-c]isoquinolin-9-yl)ethyl)amino)benzoic acid] the value was less than 1000 nM; for `Cc1cc(C(C)Nc2ccc(Cl)nc2C(=O)O)c2c(c1)c(=O)n(C)c1nn(-c3ccccc3C)cc21` (centres unmarked) [Compound I-31, 6-Chloro-3-((1-(4,7-dimethyl-5-oxo-2-(o-tolyl)-4,5-dihydro-2H-pyrazolo[3,4-c]isoquinolin-9-yl)ethyl)amino)picolinic acid], less than 1000 nM. For `COc1ccc2c3c(C(C)Nc4ccccc4C(=O)O)cc(C)cc3c(=O)n(C)c2n1` (centres unmarked) [Compound I-32, 2-[1-(3-Methoxy-5,8-dimethyl-6-oxo-benzo[c][1,8]naphthyridin-10-yl)ethylamino]benzoic acid] the value was less than 1000 nM. With `Cc1cc(C(C)Nc2ccccc2C(=O)O)c2c(c1)c(=O)n(C)c1nc(N(C)C)ccc21` (centres unmarked) [Compound I-33, 2-[1-[3-(Dimethylamino)-5,8-dimethyl-6-oxo-benzo[c][1,8]naphthyridin-10-yl]ethylamino]benzoic acid], the IC50 was less than 1000 nM. To `COCCOc1ccc2c3c(C(C)Nc4ccccc4C(=O)O)cc(C)cc3c(=O)n(C)c2n1` (centres unmarked) [Compound I-34, 2-[1-[3-(2-Methoxyethoxy)-5,8-dimethyl-6-oxo-benzo[c][1,8]naphthyridin-10-yl]ethylamino]benzoic acid] belongs less than 1000 nM.

In the case of `CC(Nc1ccccc1C(=O)O)c1cc(Cl)cc2c(=O)n(C)c3c(cnn3C)c12` (centres unmarked) [Compound I-35, 2-((1-(7-Chloro-3,4-dimethyl-5-oxo-4,5-dihydro-3H-pyrazolo[3,4-c]isoquinolin-9-yl)ethyl)amino)benzoic acid], the IC50 is less than 1000 nM.
